Measurements as given in publication PMC4841942 (Cell chemical biology, 2016).
Read-outs that look alike come from different tables or passages of the source. Each block holds one molecule with its values, some of them ahead of it.

Assays:
p97 WT [1] = molecular target: T1, p97 WT (Homo sapiens, UniProt P55072); assay: ATPase activity assay, recombinant p97 WT; type: biochemical
p97 A530T [2] = molecular target: T2, p97 A530T (Homo sapiens, UniProt P55072, A530T); assay: ATPase activity assay, recombinant p97 A530T; type: biochemical
p97 WT [3] = molecular target: T1, p97 WT; assay: TR-FRET binding assay
p97 A530T [4] = molecular target: T2, p97 A530T; assay: TR-FRET binding assay; conditions: for increase in apparent Kd for A530T: A530T versus WT
[5] = tested on: HCT116 873-R and 873-S cells; assay: Cell viability; type: cell-based
[6] = tested on: HCT116 cells engineered with p97 A530T; assay: Cell viability; type: cell-based; conditions: homozygous A530T
[7] = molecular target: T3, p97 complexes in HCT116 cells (Homo sapiens, UniProt P55072); assay: Immunoblot of p97 immunoprecipitated from inhibitor-treated cells; type: cell-based; conditions: for increase in UFD1/NPL4 binding to p97 relative to control: inhibitor concentrations causing similar CHOP and ATF4 induction
Target sequence in this assay (P55072 2-806 limits assumed, one chain of several): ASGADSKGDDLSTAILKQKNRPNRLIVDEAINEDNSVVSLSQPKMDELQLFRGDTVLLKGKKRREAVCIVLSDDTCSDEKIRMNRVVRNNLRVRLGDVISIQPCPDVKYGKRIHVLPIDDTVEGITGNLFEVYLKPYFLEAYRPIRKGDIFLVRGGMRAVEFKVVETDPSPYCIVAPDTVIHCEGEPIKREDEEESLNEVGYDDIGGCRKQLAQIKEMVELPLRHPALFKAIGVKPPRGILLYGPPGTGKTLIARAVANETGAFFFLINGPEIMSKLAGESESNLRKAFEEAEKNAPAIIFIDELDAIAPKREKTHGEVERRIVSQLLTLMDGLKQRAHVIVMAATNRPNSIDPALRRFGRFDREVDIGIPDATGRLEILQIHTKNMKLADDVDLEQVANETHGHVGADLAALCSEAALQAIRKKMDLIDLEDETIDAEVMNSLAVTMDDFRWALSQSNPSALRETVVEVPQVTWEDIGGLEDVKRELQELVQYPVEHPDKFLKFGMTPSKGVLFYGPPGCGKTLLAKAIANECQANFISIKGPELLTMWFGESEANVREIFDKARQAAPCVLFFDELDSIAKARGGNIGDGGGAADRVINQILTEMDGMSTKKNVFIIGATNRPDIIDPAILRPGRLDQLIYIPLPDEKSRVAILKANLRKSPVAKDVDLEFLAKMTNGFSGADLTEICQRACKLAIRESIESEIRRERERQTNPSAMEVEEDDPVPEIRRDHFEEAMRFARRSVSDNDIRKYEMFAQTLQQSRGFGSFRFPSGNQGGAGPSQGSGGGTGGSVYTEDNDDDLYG

[8] = molecular target: T3, p97 complexes in HCT116 cells; assay: LC-MS/MS analysis of p97 complexes purified from inhibitor-treated cells; type: cell-based; conditions: HCT116, 5 µM NMS-873, 6 hours, LC-MS/MS spectrum count
Target sequence in this assay (P55072 whole entry, one chain of several): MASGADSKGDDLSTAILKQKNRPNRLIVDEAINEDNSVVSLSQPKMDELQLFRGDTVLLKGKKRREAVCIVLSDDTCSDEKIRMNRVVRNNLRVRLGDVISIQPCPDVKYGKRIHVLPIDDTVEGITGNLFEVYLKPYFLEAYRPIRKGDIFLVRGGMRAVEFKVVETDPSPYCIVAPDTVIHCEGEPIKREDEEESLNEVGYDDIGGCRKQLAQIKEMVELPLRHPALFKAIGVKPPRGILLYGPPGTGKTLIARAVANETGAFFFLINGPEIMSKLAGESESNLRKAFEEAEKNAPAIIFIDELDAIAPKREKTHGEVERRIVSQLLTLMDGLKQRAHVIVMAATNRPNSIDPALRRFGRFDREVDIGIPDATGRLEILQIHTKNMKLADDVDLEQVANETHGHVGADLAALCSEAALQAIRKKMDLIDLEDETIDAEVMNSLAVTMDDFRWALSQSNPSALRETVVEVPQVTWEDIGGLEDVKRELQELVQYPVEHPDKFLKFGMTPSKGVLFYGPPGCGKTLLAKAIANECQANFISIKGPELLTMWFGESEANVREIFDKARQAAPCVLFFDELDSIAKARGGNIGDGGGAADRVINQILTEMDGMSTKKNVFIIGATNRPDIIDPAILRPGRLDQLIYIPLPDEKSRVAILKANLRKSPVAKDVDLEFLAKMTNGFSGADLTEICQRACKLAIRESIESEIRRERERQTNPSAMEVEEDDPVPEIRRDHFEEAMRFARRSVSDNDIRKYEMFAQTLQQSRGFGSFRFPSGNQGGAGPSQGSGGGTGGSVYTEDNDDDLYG

[9] = tested on: CHOP, ATF4 and polyubiquitin in HCT116 cells; assay: Immunoblot of biomarkers of p97 inhibition; type: cell-based; conditions: 6 hours
[10] = HCT116, 1 hour, concentration dependent, immunoblot
[11] = HCT116, after washout of 5 µM NMS-873 (120 minutes)

T2 sequence (P55072 whole entry A530T): as the sequence (P55072 whole entry, one chain of several) above, with A530T counted along it
T1 sequence (P55072 whole entry): as the sequence (P55072 whole entry, one chain of several) above

Molecule: Cc1cc2c(C(N)=O)cccc2n1-c1nc2c(c(NCc3ccccc3)n1)COCC2 [CB-5083]
sensitivity of 873-R compared with 873-S cells [5]: similarly sensitive | sensitivity of engineered A530T cells [6]: remained sensitive

Molecule: O[C@@H](CS)[C@@H](O)CS [DTT]
sensitivity of 873-R compared with 873-S cells [5]: similarly sensitive

Molecule: CC(C)C[C@H](NC(=O)[C@H](Cc1ccccc1)NC(=O)c1cnccn1)B(O)O [bortezomib]
sensitivity of 873-R compared with 873-S cells [5]: similarly sensitive

Molecule: C[C@H]1CCC/C=C/[C@@H]2C[C@H](O)C[C@H]2[C@H](O)/C=C/C(=O)O1 [brefeldin A]
sensitivity of 873-R compared with 873-S cells [5]: similarly sensitive

Molecule: CC(C)C[C@H](NC(=O)[C@H](CCc1ccccc1)NC(=O)CN1CCOCC1)C(=O)N[C@@H](Cc1ccccc1)C(=O)N[C@@H](CC(C)C)C(=O)[C@@]1(C)CO1 [carfilzomib]
sensitivity of 873-R compared with 873-S cells [5]: similarly sensitive

Molecule: tunicamycin
sensitivity of 873-R compared with 873-S cells [5]: similarly sensitive

Second part, led by results:

fold less sensitive to ADP than ATP-γ-S (p97 WT [1]; WT ATPase activity): 18 fold | IC50 (p97 WT [1]; read-out: IC50 ATPase activity, WT p97): 4500 nM | fold less sensitive to ADP than ATP-γ-S (p97 A530T [2]; A530T ATPase activity): 3.7 fold | IC50 (p97 A530T [2]; read-out: IC50 ATPase activity, A530T p97): 24600 nM | Kd (p97 WT [3]; read-out: apparent Kd, WT p97, TR-FRET, non-linear regression): 600 nM | increase in apparent Kd for A530T (p97 A530T [4]): 5- to 6 fold | Kd (p97 A530T [4]; read-out: apparent Kd, A530T p97, TR-FRET): 3800 nM
Molecule: Nc1ncnc2c1ncn2[C@@H]1O[C@H](COP(=O)(O)OP(=O)(O)O)[C@@H](O)[C@H]1O [ADP]

IC50 (p97 WT [1]): 247 nM | IC50 (p97 A530T [2]): 6600 nM | Kd (p97 WT [3]): 25 nM | Kd (p97 A530T [4]): 140 nM | increase in apparent Kd for A530T (p97 A530T [4]): 5- to 6 fold
Molecule: Nc1ncnc2c1ncn2[C@@H]1O[C@H](CO[P@](=O)(O)O[P@](=O)(O)O[P@@](=O)(O)S)[C@@H](O)[C@H]1O [ATP-γ-S]

increase in UFD1/NPL4 binding to p97 relative to control ([7]; HCT116, 1 hour): up to 2.1 fold
Molecule: c1ccc(CNc2nc(NCc3ccccc3)c3ccccc3n2)cc1 [DBeQ]
sensitivity of 873-R compared with 873-S cells [5]: similarly sensitive

increase in UFD1/NPL4 binding to p97 relative to control ([7]; HCT116, 1 hour): up to 2.1 fold
Molecule: CC1(C)C(N(O)C(=O)Nc2ccc(Cl)cc2)N(c2ccc(Cl)cc2)C(=O)N1CC(=O)N/N=C/C=C/c1ccc([N+](=O)[O-])o1 (stereo not drawn) [EerI, Eeyarestatin I]
sensitivity of 873-R compared with 873-S cells [5]: similarly sensitive

increase in ubiquitin bound to p97 [8]: 15 fold | increase in UFD1 and NPL4 bound to p97 [7, 10]: 12- to 15 fold | increase in p47 bound to p97 [7, 10]: 2.5 fold | t1/2 of decrease of NPL4 binding to p97 during recovery [7, 11]: 17 min | t1/2 of decrease of UFD1 binding to p97 during recovery [7, 11]: 13 min
Molecule: Cc1cc(OCc2nnc(SC3CCCC3)n2-c2cccnc2)ccc1-c1ccc(S(C)(=O)=O)cc1 [NMS-873]
induction of CHOP, ATF4 and polyubiquitin in 873-R compared with 873-S cells ([9]; NMS-873 2 and 5 µM, CB-5083 0.3 and 2.5 µM): diminished responses | induction of CHOP, ATF4 and polyubiquitin in engineered A530T cells ([9]; HDR cells homozygous for A530T): diminished induction

increase in UFD1/NPL4 binding to p97 relative to control ([7]; HCT116, 1 hour): up to 2.1 fold
Molecule: NMS-859
sensitivity of 873-R compared with 873-S cells [5]: similarly sensitive

cofactor concentration of maximum inhibition of ATPase activity (p97 WT [1]; WT p97, biphasic response, recovery at 200 nM): 3.1 nM
B1: p47: recombinant p97 cofactor protein with N-terminal hexahistidine tag (protein)
chain: MAAERQEALREFVAVTGAEEDRARFFLESAGWDLQIALASFYEDGGDEDIVTISQATPSSVSRGTAPSDNRVTSFRDLIHDQDEDEEEEEGQRFYAGGSERSGQQIVGPPRKKSPNELVDDLFKGAKEHGAVAVERVTKSPGETSKPRPFAGGGYRLGAAPEEESAYVAGEKRQHSSQDVHVVLKLWKSGFSLDNGELRSYQDPSNAQFLESIRRGEVPAELRRLAHGGQVNLDMEDHRDEDFVKPKGAFKAFTGEGQKLGSTAPQVLSTSSPAQQAENEAKASSSILIDESEPTTNIQIRLADGGRLVQKFNHSHRISDIRLFIVDARPAMAATSFILMTTFPNKELADESQTLKEANLLNAVIVQRLT
modifications: left off: His6, N-terminal, state not stated
